Reference: US20110190503A1, “Thiazolopyridin-2-yloxy-phenyl and thiazolopyrazin-2-yloxy-phenyl amines as modulators of leukotriene A4 hydrolase” (Janssen Pharmaceutical NV, priority 2008, published 2011)
Where a name gives a salt, the structure may show the parent alone.

These compounds were tested against T1, recombinant human LTA4 hydrolase (rhLTA4H) (Homo sapiens, UniProt P09960) (assay: Recombinant human LTA4 hydrolase assay for LTA4 hydrolase inhibitor activity). Conditions: rhLTA4H, LTA4 substrate, LTB4 by immunoassay; single determination or average; read-out: IC50.
T1 construct: made in house; host or cells: Spodoptera frugiperda (Sf-9) cells, recombinant baculovirus (pFastBac1)
T1 sequence (P09960 1-611): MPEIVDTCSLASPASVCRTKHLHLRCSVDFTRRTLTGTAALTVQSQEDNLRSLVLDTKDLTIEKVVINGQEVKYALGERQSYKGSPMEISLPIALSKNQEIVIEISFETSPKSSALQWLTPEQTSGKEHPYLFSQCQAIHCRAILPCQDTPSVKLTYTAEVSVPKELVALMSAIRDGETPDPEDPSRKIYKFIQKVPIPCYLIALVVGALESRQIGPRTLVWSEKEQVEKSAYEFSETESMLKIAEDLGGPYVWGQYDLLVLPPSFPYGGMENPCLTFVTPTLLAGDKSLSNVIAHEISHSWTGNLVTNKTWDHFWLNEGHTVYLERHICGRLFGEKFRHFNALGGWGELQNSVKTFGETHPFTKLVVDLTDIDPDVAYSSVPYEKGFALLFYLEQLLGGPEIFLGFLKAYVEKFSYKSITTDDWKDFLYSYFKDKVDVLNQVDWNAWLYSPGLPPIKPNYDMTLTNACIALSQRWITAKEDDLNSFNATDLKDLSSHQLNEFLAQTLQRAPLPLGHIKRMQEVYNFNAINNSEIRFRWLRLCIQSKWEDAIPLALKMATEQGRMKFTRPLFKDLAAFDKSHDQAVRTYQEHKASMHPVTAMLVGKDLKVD
Type: biochemical
Description: Assay 1: Recombinant Human LTA4 Hydrolase Assay for LTA4 Hydrolase Inhibitor Activity
Compounds of the present invention were tested for LTA4 hydrolase inhibitor activity against recombinant human LTA4 hydrolase (rhLTA4H). Vectors were prepared and used to express rhLTA4H essentially as follows: LTA4 hydrolase encoding DNA was amplified by polymerase chain reaction (PCR) using a human placental cDNA library as a template. […] The amplified 1.9 kb DNA fragment encoding LTA4 hydrolase was isolated and cloned into the pFastBac1 vector (Invitrogen). Recombinant baculovirus was generated as described by the manufacturer, and used to infect Spodoptera frugiperda (Sf-9) cells. […] The purified enzyme solution was adjusted to contain 0.29 mg/mL LTA4 hydrolase, 50 mM Tris (pH 8.0), 150 mM NaCl, 5 mM dithiothreitol, 50% glycerol, and EDTA-free Complete protease inhibitor cocktail (Roche).
LTA4 substrate was prepared from the methyl ester of LTA4 (Cayman Chemical) by treatment with 67 equiv of NaOH under nitrogen at rt for 40 min. The LTA4 substrate in its free acid form was kept frozen at −80° C. until needed. Each compound was diluted to different concentrations in assay buffer (from Assay Designs) containing 10% DMSO. A 25-μL aliquot of each compound dilution was incubated for 10 min at rt with an equal volume of assay buffer containing 10 ng of recombinant human LTA4H. The solution was then adjusted to 200 μL with assay buffer. […] Each reaction was carried out at rt for 30 min. The reaction was stopped by diluting 10 μL of the reaction mixture with 200 μL of assay buffer. LTB4 was quantified in the diluted sample by a commercially available enzyme-linked immunoassay (Cayman Chemical Co.), as recommended by the manufacturer. Positive controls, under essentially identical conditions but without addition of an inhibitor compound, and negative controls, containing all assay components except enzyme, were routinely run in each experiment. IC50 values were determined by nonlinear regression of the activity data at different compound concentrations using Graphpad Prism 4.0, one site binding competition.
The values presented here are the result of a single determination or an average of two or more determinations, as indicated in parentheses following each value. For compounds tested three or more times, the average value is followed by the standard deviation

Row | Structure (SMILES) | IC50
1 | O=C1CCCN1C1CCN(CCc2ccc(Oc3nc4cccnc4s3)cc2)CC1 [Example 68, 1-(1-{2-[4-([1,3]Thiazolo[5,4-b]pyridin-2-yloxy)phenyl]ethyl}piperidin-4-yl)pyrrolidin-2-one] | 280 nM
2 | OC1(c2ccc(Cl)cc2)CCN(CCOc2ccc(Oc3nc4cccnc4s3)cc2)CC1 [Example 39, 4-(4-Chlorophenyl)-1-{2-[4-([1,3]thiazolo[5,4-b]pyridin-2-yloxy)phenoxy]ethyl}piperidin-4-ol] | 260 nM
3 | CCN(CCc1ccc(Oc2nc3cccnc3s2)cc1)C1CC1 [Example 174, N-Ethyl-N-{2-[4-([1,3]thiazolo[5,4-b]pyridin-2-yloxy)phenyl]ethyl}cyclopropanamine] | 94 nM
4 | CS(=O)(=O)N1CC2CN(Cc3ccc(Oc4nc5ncc(Cl)cc5s4)cc3)CC2C1 (stereo not drawn) [Example 188, 6-Chloro-2-[(4-{[5-(methylsulfonyl)hexahydropyrrolo[3,4-c]pyrrol-2(1H)-yl]methyl}phenyl)oxy][1,3]thiazolo[4,5-b]pyridine] | 50 nM
5 | Clc1cnc2nc(Oc3ccc(CN4CCSCC4)cc3)sc2c1 [Example 189, 6-Chloro-2-{[4-(thiomorpholin-4-ylmethyl)phenyl]oxy}[1,3]thiazolo[4,5-b]pyridine] | 308 nM
6 | O=C(c1ccccn1)N1CCN(Cc2ccc(Oc3nc4ccncc4s3)cc2)CC1 [Example 217, 2-(4-{[4-(Pyridin-2-ylcarbonyl)piperazin-1-yl]methyl}phenoxy)[1,3]thiazolo[5,4-c]pyridine] | 2510 nM
7 | CCCN(Cc1ccc(Oc2nc3cnccc3s2)cc1)CC1CC1 [Example 186, N-(Cyclopropylmethyl)-N-{[4-([1,3]thiazolo[4,5-c]pyridin-2-yloxy)phenyl]methyl}propan-1-amine] | 263 nM
8 | c1cnc(N2CCN(Cc3ccc(Oc4nc5nccnc5s4)cc3)CC2)nc1 [Example 167, 2-({4-[(4-Pyrimidin-2-ylpiperazin-1-yl)methyl]phenyl}oxy)[1,3]thiazolo[4,5-b]pyrazine] | 432 nM
9 | CN1CCN(C(=O)C2CCN(Cc3ccc(Oc4nc5ccncc5s4)cc3)CC2)CC1 [Example 227, 2-[4-({4-[(4-Methylpiperazin-1-yl)carbonyl]piperidin-1-yl}methyl)phenoxy][1,3]thiazolo[5,4-c]pyridine] | 748 nM
10 | CC(=O)N1C[C@@H]2C[C@H]1CN2Cc1ccc(Oc2nc3cc(F)cnc3s2)cc1 [Example 123, 2-(4-{[(1S,4S)-5-Acetyl-2,5-diazabicyclo[2.2.1]hept-2-yl]methyl}phenoxy)-6-fluoro[1,3]thiazolo[5,4-b]pyridine] | 180 nM
11 | O=C(c1ccc(Cl)cc1)C1CCN(CCc2ccc(Oc3nc4cnccc4s3)cc2)CC1 [Example 195, (4-Chlorophenyl)(1-{2-[4-([1,3]thiazolo[4,5-c]pyridin-2-yloxy)phenyl]ethyl}piperidin-4-yl)methanone] | 1370 nM

Results, then the compound that gave them:

Row | IC50 | Structure (SMILES)
12 | 45 nM | FC(F)(F)C1CCN(CCOc2ccc(Oc3nc4cnccc4s3)cc2)CC1 [Example 164, 2-{[4-({2-[4-(Trifluoromethyl)piperidin-1-yl]ethyl}oxy)phenyl]oxy}[1,3]thiazolo[4,5-c]pyridine]
13 | 42 nM | NC(=O)N1[C@@H]2CC[C@H]1CN(Cc1ccc(Oc3nc4ncccc4s3)cc1)C2 [Example 171, meso-3-{[4-([1,3]Thiazolo[4,5-b]pyridin-2-yloxy)phenyl]methyl}-3,8-diazabicyclo[3.2.1]octane-8-carboxamide]
14 | 3900 nM | OCCCN(CCOc1ccc(Oc2nc3ccncc3s2)cc1)C1CC1 [Example 208, 3-(Cyclopropyl{2-[4-([1,3]thiazolo[5,4-c]pyridin-2-yloxy)phenoxy]ethyl}amino)propan-1-ol]
15 | 120 nM | CC(=O)N1CC2CN(CCc3ccc(Oc4nc5cccnc5s4)cc3)CC2C1 (stereo not drawn) [Example 69, 2-{4-[2-(5-Acetylhexahydropyrrolo[3,4-c]pyrrol-2(1H)-yl)ethyl]phenoxy}[1,3]thiazolo[5,4-b]pyridine]
16 | 21 nM | CC(=O)N1[C@@H]2CC[C@H]1C[C@H](NCCOc1ccc(Oc3nc4ncccc4s3)cc1)C2 [Example 215, meso-(3-exo)-8-Acetyl-N-{2-[4-([1,3]thiazolo[4,5-b]pyridin-2-yloxy)phenoxy]ethyl}-8-azabicyclo[3.2.1]octan-3-amine hydrochloride]
17 | 18 nM | CC(=O)N1[C@@H]2CC[C@H]1CN(CCc1ccc(Oc3nc4ncccc4s3)cc1)C2 [Example 212, meso-2-(4-{2-[8-Acetyl-3,8-diazabicyclo[3.2.1]oct-3-yl]ethyl}phenoxy)[1,3]thiazolo[4,5-b]pyridine]
18 | 58 nM | NC(=O)N1C[C@@H]2C[C@H]1CN2Cc1ccc(Oc2nc3ncc(Cl)cc3s2)cc1 [Example 193, (1S,4S)-5-({4-[(6-Chloro[1,3]thiazolo[4,5-b]pyridin-2-yl)oxy]phenyl}methyl)-2,5-diazabicyclo[2.2.1]heptane-2-carboxamide]
19 | ~9000 nM | NC(=O)N1[C@@H]2CC[C@H]1CN(Cc1ccc(Oc3nc4cnccc4s3)cc1)C2 [Example 202, meso-3-[4-([1,3]Thiazolo[4,5-c]pyridin-2-yloxy)benzyl]-3,8-diazabicyclo[3.2.1]octane-8-carboxamide]
20 | 193 nM | Cc1ccnc2nc(Oc3ccc(OCCN4CCN(C(=O)c5ccncc5)CC4)cc3)sc12 [Example 143, 7-Methyl-2-(4-{2-[4-(pyridin-4-ylcarbonyl)piperazin-1-yl]ethoxy}phenoxy)[1,3]thiazolo[4,5-b]pyridine]
21 | 53 nM | CNC(=O)C1CCN(CCOc2ccc(Oc3nc4nccc(C)c4s3)cc2)CC1 [Example 165, N-Methyl-1-[2-({4-[(7-methyl[1,3]thiazolo[4,5-b]pyridin-2-yl)oxy]phenyl}oxy)ethyl]piperidine-4-carboxamide]
22 | 252 nM | O=C(c1ccco1)N1CCN(CCOc2ccc(Oc3nc4ncc(Cl)cc4s3)cc2)CC1 [Example 147, 6-Chloro-2-(4-{2-[4-(furan-2-ylcarbonyl)piperazin-1-yl]ethoxy}phenoxy)[1,3]thiazolo[4,5-b]pyridine]
23 | 160 nM | NC(=O)N1C[C@@H]2C[C@H]1CN2CCOc1ccc(Oc2nc3cccnc3s2)cc1 [Example 21, (1S,4S)-5-{2-[4-([1,3]Thiazolo[5,4-b]pyridin-2-yloxy)phenoxy]ethyl}-2,5-diazabicyclo[2.2.1]heptane-2-carboxamide]
24 | 110 nM | c1ccc2c(c1)CN(CCOc1ccc(Oc3nc4ncccc4s3)cc1)C2 [Example 2, 2-{4-[2-(1,3-Dihydro-2H-isoindol-2-yl)ethoxy]phenoxy}[1,3]thiazolo[4,5-b]pyridine]
25 | 332 nM | CC(=O)N1[C@@H]2CC[C@H]1C[C@H](NCc1ccc(Oc3nc4ncc(C)cc4s3)cc1)C2 [Example 181, meso-(3-exo)-8-Acetyl-N-({4-[(6-methyl[1,3]thiazolo[4,5-b]pyridin-2-yl)oxy]phenyl}methyl)-8-azabicyclo[3.2.1]octan-3-amine]
26 | 160 nM | NC(=O)N1C[C@@H]2C[C@H]1CN2CCc1ccc(Oc2nc3cccnc3s2)cc1 [Example 78, (1S,4S)-5-{2-[4-([1,3]Thiazolo[5,4-b]pyridin-2-yloxy)phenyl]ethyl}-2,5-diazabicyclo[2.2.1]heptane-2-carboxamide]
27 | 276 nM | CCC(=O)NC1CCN(Cc2ccc(Oc3nc4cccnc4s3)cc2)CC1 [Example 219, N-{1-[4-([1,3]Thiazolo[5,4-b]pyridin-2-yloxy)benzyl]piperidin-4-yl}propanamide]
